Results on 11 molecules are retold here after ChEMBL document CHEMBL1201862, “PubChem BioAssay data set” (2004).

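Test compounds were applied to cells in 96-well plates for 48 hours at 5 doses. The concentration for 50% growth inhibition is given as GI50.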 Active and inactive are the calls of the source. Rule as the data show it: active = GI50 up to about 1.1 µM and inactive = higher. Where a SMILES comes first, the peptide text is derived from it. The star is where a group is joined. Boc = CC(C)(C)OC(=O)*

Some test systems named below: HCC 2998; COLO 205; OVCAR-4; HT-29; RPMI-8226; RXF 393; M14; SNB-19; SR; UO-31; SW-620; SK-MEL-5; OVCAR-3; CCRF-CEM; SF-295; UACC-62; CAKI-1; SN12C; DU-145; Hs-578T.
Holding throughout (experiment): NCI tumour cell line growth inhibition, 48 h

As for `Cc1ccc(NC(=O)CC2Sc3ccccc3NC2=O)cc1C` (centres undefined), the GI50 in the experiment with HCC 2998 was > 100 µM (inactive); in the experiment with COLO 205 it was 65.2 µM (inactive); with OVCAR-4, 56.2 µM (inactive); in the experiment on HT-29, 67.1 µM (inactive); in the experiment on RPMI-8226, > 100 µM (inactive); in the experiment on RXF 393 it was 29.9 µM (inactive). Further, the GI50 was > 100 µM (inactive) with M14; > 100 µM (inactive) with SNB-19; > 100 µM (inactive) in the experiment with SR; 73.6 µM (inactive) in the experiment with UO-31; > 100 µM (inactive) in the experiment on SW-620; 41.4 µM (inactive) with SK-MEL-5. Besides, the GI50 is 70.8 µM (inactive) in the experiment on OVCAR-3; 18.7 µM (inactive) in the experiment with CCRF-CEM; > 100 µM (inactive) in the experiment with SF-295; 75.3 µM (inactive) in the experiment with UACC-62; 85.9 µM (inactive) in the experiment with CAKI-1; > 100 µM (inactive) in the experiment on SN12C.
Consider `CCCCCCCCCCCCn1c(=O)cc(NCCCC)c2cc3c(NCCCC)cc(=O)n(CCCCCCCCCCCC)c3nc21`, for which the GI50 in the experiment on HCC 2998, with COLO 205, in the experiment on OVCAR-4, in the experiment with RPMI-8226, with M14 and in the experiment on SNB-19 was > 100 µM (inactive) in each case. Also, the GI50 in the experiment on UO-31, in the experiment on DU-145, in the experiment on SK-MEL-5, in the experiment on OVCAR-3, with SF-295 and in the experiment on UACC-62 was > 100 µM (inactive) each time. For the same molecule, the GI50 with CAKI-1 and with SN12C was > 100 µM (inactive) throughout.
In the case of `Cc1cc(C)c2c(c1)CSCc1cc(C)cc(C)c1-2`, the GI50 in the experiment on HCC 2998 is 35.2 µM (inactive); in the experiment with COLO 205, 26.5 µM (inactive); in the experiment on OVCAR-4 it was 39.2 µM (inactive); with HT-29, 19.3 µM (inactive); in the experiment on RPMI-8226 it was 22.9 µM (inactive); in the experiment with RXF 393 it was 39.4 µM (inactive). Moreover, the GI50 is 22.6 µM (inactive) with M14; 44.8 µM (inactive) with SNB-19; 23.9 µM (inactive) in the experiment with SR; 39.4 µM (inactive) with UO-31; 71.8 µM (inactive) in the experiment with SW-620; 21.6 µM (inactive) in the experiment with SK-MEL-5. For the same molecule, the GI50 in the experiment on OVCAR-3 was 30.3 µM (inactive); with CCRF-CEM, 23 µM (inactive); with SF-295 it was 25.6 µM (inactive); in the experiment on UACC-62, 23.4 µM (inactive); in the experiment with CAKI-1, 26.2 µM (inactive); in the experiment on SN12C, 35.2 µM (inactive).
On to `COc1cc(C2C(Cl)C(=O)N2n2cnc3ccccc3c2=O)cc(OC)c1OC` (centres undefined), for which the GI50 is > 100 µM (inactive) in the experiment with HCC 2998; > 100 µM (inactive) in the experiment with COLO 205; 82.2 µM (inactive) in the experiment with OVCAR-4; > 100 µM (inactive) with HT-29; 77.8 µM (inactive) in the experiment with RPMI-8226; > 100 µM (inactive) in the experiment on RXF 393. Besides, the GI50 in the experiment on M14 was 84.5 µM (inactive); in the experiment on SNB-19, > 100 µM (inactive); in the experiment with SR, 31.2 µM (inactive); in the experiment on UO-31, > 100 µM (inactive); in the experiment on SW-620, 60.3 µM (inactive); with SK-MEL-5, > 100 µM (inactive). Also, the GI50 in the experiment on OVCAR-3 was > 100 µM (inactive); in the experiment on CCRF-CEM, 82 µM (inactive); in the experiment on SF-295 it was > 100 µM (inactive); in the experiment with UACC-62, 37.9 µM (inactive); in the experiment on CAKI-1, 67.1 µM (inactive); in the experiment with SN12C it was > 100 µM (inactive).
For the molecule `CCCCCCC(C)CC(CCCCCC)NCCOC(=O)c1ccc([N+](=O)[O-])cc1` (centres undefined), the GI50 was 3.72 µM (inactive) in the experiment on HCC 2998; 2.17 µM (inactive) in the experiment on COLO 205; 11.7 µM (inactive) in the experiment with OVCAR-4; 5.43 µM (inactive) in the experiment on HT-29; 18.7 µM (inactive) in the experiment on Hs-578T; 15.9 µM (inactive) in the experiment on SNB-19. Also, the GI50 in the experiment on UO-31 was 11.6 µM (inactive); in the experiment on SW-620 it was 13.6 µM (inactive); in the experiment on DU-145, 15.6 µM (inactive); in the experiment on SK-MEL-5 it was 14.3 µM (inactive); with CCRF-CEM, 2.69 µM (inactive); in the experiment with SF-295 it was 11.7 µM (inactive). The GI50 in the experiment on UACC-62 is 14.5 µM (inactive); in the experiment with SN12C, 12.4 µM (inactive).
With `COC(=O)c1cc(S(=O)(=O)NC2=NNC(C)CN2)c(S)cc1Cl` (centres undefined), the GI50 in the experiment with HCC 2998 was 42.3 µM (inactive); in the experiment on COLO 205 it was 52.7 µM (inactive); with OVCAR-4, 33.9 µM (inactive); in the experiment with HT-29, 42.7 µM (inactive); with RPMI-8226, 31.2 µM (inactive); in the experiment with M14, 31.5 µM (inactive). Also, the GI50 in the experiment with SNB-19 is 85.1 µM (inactive); with SR, 37.5 µM (inactive); in the experiment on UO-31, 99.3 µM (inactive); in the experiment with SW-620, 42.3 µM (inactive); in the experiment with DU-145 it was 78.9 µM (inactive); in the experiment on SK-MEL-5, 26.4 µM (inactive). The GI50 with OVCAR-3 was 38.3 µM (inactive); in the experiment on CCRF-CEM it was 84.1 µM (inactive); in the experiment with SF-295, 54.3 µM (inactive); in the experiment with UACC-62 it was 47 µM (inactive); in the experiment with CAKI-1, > 100 µM (inactive); in the experiment on SN12C, > 100 µM (inactive).
For the molecule `Cc1ccc(S(=O)(=O)N/N=c2\c(C)c(C3=NS(=O)(=O)c4cc(S(N)(=O)=O)c(Cl)cc4N3)oc3c(Cl)cc(Cl)cc23)cc1`, the GI50 is > 100 µM (inactive) with HCC 2998; 22.3 µM (inactive) with COLO 205; > 100 µM (inactive) in the experiment on OVCAR-4; 49.9 µM (inactive) with HT-29; 36.9 µM (inactive) in the experiment on RPMI-8226; 59.7 µM (inactive) in the experiment on RXF 393. Further, the GI50 is > 100 µM (inactive) in the experiment with M14; > 100 µM (inactive) in the experiment on SNB-19; > 100 µM (inactive) with SR; > 100 µM (inactive) in the experiment on UO-31; 6.87 µM (inactive) with SW-620; > 100 µM (inactive) in the experiment on SK-MEL-5. For the same molecule, the GI50 in the experiment on OVCAR-3 is > 100 µM (inactive); in the experiment on CCRF-CEM, 32.2 µM (inactive); in the experiment with SF-295, > 100 µM (inactive); in the experiment with UACC-62, > 100 µM (inactive); in the experiment on CAKI-1 it was > 100 µM (inactive); in the experiment with SN12C, > 100 µM (inactive).
Regarding `Cc1ccc(S(=O)(=O)OC2CSSCC2OS(=O)(=O)c2ccc(C)cc2)cc1` (centres undefined), the GI50 was 20.9 µM (inactive) in the experiment on HCC 2998; 13.7 µM (inactive) with COLO 205; 11.2 µM (inactive) in the experiment on OVCAR-4; 9.68 µM (inactive) in the experiment on HT-29; 13.2 µM (inactive) with RPMI-8226; 20.9 µM (inactive) in the experiment with RXF 393. The GI50 in the experiment on M14 is 12.6 µM (inactive); with SNB-19, 17.3 µM (inactive); with SR, 7.69 µM (inactive); in the experiment with UO-31 it was 15.2 µM (inactive); in the experiment on SW-620 it was 14.4 µM (inactive); with SK-MEL-5, 15.7 µM (inactive). For the same molecule, the GI50 is 13.3 µM (inactive) in the experiment with OVCAR-3; 4.35 µM (inactive) in the experiment with CCRF-CEM; 16.2 µM (inactive) in the experiment with SF-295; 7.89 µM (inactive) in the experiment on UACC-62; 12.5 µM (inactive) in the experiment on CAKI-1; 11.3 µM (inactive) in the experiment on SN12C.
For `CN(C)C(=S)/N=c1\ssc(=S)n1Cc1ccco1`, the GI50 is 4.61 µM (inactive) with HCC 2998; 2.21 µM (inactive) in the experiment on COLO 205; 13.6 µM (inactive) in the experiment on OVCAR-4; 0.998 µM (active) in the experiment with HT-29; 1.48 µM (inactive) with RPMI-8226; 0.998 µM (active) with RXF 393. Also, the GI50 with M14 is 2.15 µM (inactive); in the experiment with Hs-578T, 0.31 µM (active); in the experiment on SNB-19, 2.9 µM (inactive); in the experiment on SR it was 1.97 µM (inactive); with UO-31, 5.57 µM (inactive); in the experiment on SW-620 it was 0.701 µM (active). The GI50 in the experiment on SK-MEL-5 is 1.22 µM (inactive); in the experiment on OVCAR-3, 1.15 µM (inactive); in the experiment on CCRF-CEM, 0.975 µM (active); in the experiment on SF-295 it was 2.1 µM (inactive); with UACC-62 it was 0.879 µM (active); with CAKI-1 it was 2.01 µM (inactive). In addition, the GI50 with SN12C was 4.21 µM (inactive).
With `Cc1nnc2n1N=C(c1cc(F)c(Cl)cc1Cl)/C(=C/c1ccc(-c3ccc([N+](=O)[O-])cc3)o1)S2`, the GI50 is > 100 µM (inactive) with HCC 2998; 65.9 µM (inactive) with COLO 205; 66.5 µM (inactive) in the experiment on OVCAR-4; 69.2 µM (inactive) in the experiment on HT-29; 34 µM (inactive) with RPMI-8226; > 100 µM (inactive) in the experiment with M14. Besides, the GI50 was > 100 µM (inactive) in the experiment with Hs-578T; > 100 µM (inactive) in the experiment with SNB-19; 34.2 µM (inactive) in the experiment with SR; 85.3 µM (inactive) in the experiment on UO-31; 39.6 µM (inactive) in the experiment with SW-620; 56.9 µM (inactive) in the experiment on SK-MEL-5. For the same molecule, the GI50 was > 100 µM (inactive) in the experiment on OVCAR-3; 37.2 µM (inactive) with CCRF-CEM; > 100 µM (inactive) with SF-295; > 100 µM (inactive) with UACC-62; > 100 µM (inactive) with CAKI-1; 35.3 µM (inactive) with SN12C.
Consider `COC(=O)C(Cc1c[nH]c2ccccc12)NC(=O)C(Cc1c[nH]c2ccccc12)NC(=O)C(Cc1c[nH]c2ccccc12)NC(=O)C(Cc1c[nH]c2ccccc12)NC(=O)C(Cc1c[nH]c2ccccc12)NC(=O)C(Cc1c[nH]c2ccccc12)NC(=O)C(Cc1c[nH]c2ccccc12)NC(=O)OC(C)(C)C` (centres undefined) (Boc-WWWWWWW-OMe; configuration not given here), for which the GI50 with HCC 2998 was > 100 µM (inactive); in the experiment on OVCAR-4, > 100 µM (inactive); in the experiment with HT-29, > 100 µM (inactive); with RPMI-8226, 46.7 µM (inactive); in the experiment on M14, 21.7 µM (inactive); in the experiment with SNB-19, 47.8 µM (inactive). Moreover, the GI50 with SR is 48 µM (inactive); with UO-31 it was 44.9 µM (inactive); with SW-620, > 100 µM (inactive); in the experiment on DU-145 it was 64 µM (inactive); with SK-MEL-5 it was 20.9 µM (inactive); with OVCAR-3, > 100 µM (inactive). Further, the GI50 was 92.7 µM (inactive) in the experiment on CCRF-CEM, 51.5 µM (inactive) in the experiment with UACC-62, > 100 µM (inactive) in the experiment on CAKI-1 and 62.2 µM (inactive) with SN12C.
